Reference: ChEMBL document CHEMBL1123145, “Synthesis of pyrrolizidine alkaloids indicine, intermedine, lycopsamine, and analogues and their N-oxides. Potential antitumor agents” (1985)

How the values were obtained:
Format in all cases: functional, Mus musculus
P388 [1] = assay: Number of Survivors determined for antitumor activity against P388 Lymphocytic Leukemia system on day 5 at a dose of 17 mg/kg (6 out of 6)
P388 [2] = assay: Number of Survivors determined for antitumor activity against P388 Lymphocytic Leukemia system on day 5 at a dose of 8.5 mg/kg(6 out of 6)
P388 [3] = assay: Survival rate of the animals determined for antitumor activity against P388 Lymphocytic Leukemia system at a dose of 34 mg/kg
P388 [4] = assay: Number of Survivors determined for antitumor activity against P388 Lymphocytic Leukemia system on day 5 at a dose of 34 mg/kg (6 out of 6)
P388 [5] = assay: Number of Survivors determined for antitumor activity against P388 Lymphocytic Leukemia system on day 5 at a dose of 68 mg/kg(6 out of 6)
P388 [6] = assay: Weight difference observed in survivors treated for antitumor activity against P388 Lymphocytic Leukemia system at a dose of 8.5 mg/kg
P388 [7] = assay: Weight difference observed in survivors treated for antitumor activity against P388 Lymphocytic Leukemia system at a dose of 34 mg/kg
P388 [8] = assay: Weight difference observed in survivors treated for antitumor activity against P388 Lymphocytic Leukemia system at a dose of 17 mg/kg
P388 [9] = assay: Weight difference observed in survivors treated for antitumor activity against P388 Lymphocytic Leukemia system at a dose of 68 mg/kg
P388 [10] = assay: Survival rate of the animals determined for antitumor activity against P388 Lymphocytic Leukemia system at a dose of 8.5 mg/kg
P388 [11] = assay: Survival rate of the animals determined for antitumor activity against P388 Lymphocytic Leukemia system at a dose of 17 mg/kg
P388 [12] = assay: Survival rate of the animals determined for antitumor activity against P388 Lymphocytic Leukemia system at a dose of 68 mg/kg
P388 [13] = assay: Survival rate of the animals determined for antitumor activity against P388 Lymphocytic Leukemia system at a dose of 120 mg/kg
P388 [14] = assay: Number of Survivors determined for antitumor activity against P388 Lymphocytic Leukemia system on day 5 at a dose of 15 mg/kg (6 out of 6)
P388 [15] = assay: Weight difference observed in survivors treated for antitumor activity against P388 Lymphocytic Leukemia system at a dose of 60 mg/kg
P388 [16] = assay: Survival rate of the animals determined for antitumor activity against P388 Lymphocytic Leukemia system at a dose of 30 mg/kg
P388 [17] = assay: Weight difference observed in survivors treated for antitumor activity against P388 Lymphocytic Leukemia system at a dose of 120 mg/kg
P388 [18] = assay: Number of Survivors determined for antitumor activity against P388 Lymphocytic Leukemia system on day 5 at a dose of 120 mg/kg (6 out of 6)
P388 [19] = assay: Number of Survivors determined for antitumor activity against P388 Lymphocytic Leukemia system on day 5 at a dose of 240 mg/kg (6 out of 6)
P388 [20] = assay: Number of Survivors determined for antitumor activity against P388 Lymphocytic Leukemia system on day 5 at a dose of 30 mg/kg (6 out of 6)
P388 [21] = assay: Survival rate of the animals determined for antitumor activity against P388 Lymphocytic Leukemia system at a dose of 480 mg/kg
P388 [22] = assay: Weight difference observed in survivors treated for antitumor activity against P388 Lymphocytic Leukemia system at a dose of 30 mg/kg
P388 [23] = assay: Survival rate of the animals determined for antitumor activity against P388 Lymphocytic Leukemia system at a dose of 60 mg/kg
P388 [24] = assay: Weight difference observed in survivors treated for antitumor activity against P388 Lymphocytic Leukemia system at a dose of 240 mg/kg
P388 [25] = assay: Number of Survivors determined for antitumor activity against P388 Lymphocytic Leukemia system on day 5 at a dose of 480 mg/kg(6 out of 6)
P388 [26] = assay: Survival rate of the animals determined for antitumor activity against P388 Lymphocytic Leukemia system at a dose of 240 mg/kg
P388 [27] = assay: Weight difference observed in survivors treated for antitumor activity against P388 Lymphocytic Leukemia system at a dose of 15 mg/kg
P388 [28] = assay: Survival rate of the animals determined for antitumor activity against P388 Lymphocytic Leukemia system at a dose of 15 mg/kg
P388 [29] = assay: Number of Survivors determined for antitumor activity against P388 Lymphocytic Leukemia system on day 5 at a dose of 60 mg/kg (6 out of 6)
P388 [30] = assay: Weight difference observed in survivors treated for antitumor activity against P388 Lymphocytic Leukemia system at a dose of 480 mg/kg
P388 [31] = assay: Number of Survivors determined for antitumor activity against P388 Lymphocytic Leukemia system on day 5 at a dose of 240 mg/kg ([…])
P388 [32] = assay: Survival rate of the animals determined for antitumor activity against P388 Lymphocytic Leukemia system at a dose of 84 mg/kg
P388 [33] = assay: Number of Survivors determined for antitumor activity against P388 Lymphocytic Leukemia system on day 5 at a dose of 84 mg/kg(6 out of 6)
P388 [34] = assay: Number of Survivors determined for antitumor activity against P388 Lymphocytic Leukemia system on day 5 at a dose of 10.5 mg/kg (6 out of 6)
P388 [35] = assay: Weight difference observed in survivors treated for antitumor activity against P388 Lymphocytic Leukemia system at a dose of 21 mg/kg
P388 [36] = assay: Survival rate of the animals determined for antitumor activity against P388 Lymphocytic Leukemia system at a dose of 10.5 mg/kg
P388 [37] = assay: Survival rate of the animals determined for antitumor activity against P388 Lymphocytic Leukemia system at a dose of 21 mg/kg
P388 [38] = assay: Number of Survivors determined for antitumor activity against P388 Lymphocytic Leukemia system on day 5 at a dose of 42 mg/kg
P388 [39] = assay: Number of Survivors determined for antitumor activity against P388 Lymphocytic Leukemia system on day 5 at a dose of 42 mg/kg(6 out of 6)
P388 [40] = assay: Weight difference observed in survivors treated for antitumor activity against P388 Lymphocytic Leukemia system at a dose of 42 mg/kg
P388 [41] = assay: Number of Survivors determined for antitumor activity against P388 Lymphocytic Leukemia system on day 5 at a dose of 21 mg/kg(6 out of 6)
P388 [42] = assay: Weight difference observed in survivors treated for antitumor activity against P388 Lymphocytic Leukemia system at a dose of 10.5 mg/kg
P388 [43] = assay: Weight difference observed in survivors treated for antitumor activity against P388 Lymphocytic Leukemia system at a dose of 84 mg/kg
P388 [44] = assay: Weight difference observed in survivors treated for antitumor activity against P388 Lymphocytic Leukemia system at a dose of 192 mg/kg
P388 [45] = assay: Weight difference observed in survivors treated for antitumor activity against P388 Lymphocytic Leukemia system at a dose of 24 mg/kg
P388 [46] = assay: Survival rate of the animals determined for antitumor activity against P388 Lymphocytic Leukemia system at a dose of 96 mg/kg
P388 [47] = assay: Number of Survivors determined for antitumor activity against P388 Lymphocytic Leukemia system on day 5 at a dose of 96 mg/kg(5 out of 6)
P388 [48] = assay: Weight difference observed in survivors treated for antitumor activity against P388 Lymphocytic Leukemia system at a dose of 96 mg/kg
P388 [49] = assay: Survival rate of the animals determined for antitumor activity against P388 Lymphocytic Leukemia system at a dose of 48 mg/kg
P388 [50] = assay: Survival rate of the animals determined for antitumor activity against P388 Lymphocytic Leukemia system at a dose of 192 mg/kg
P388 [51] = assay: Weight difference observed in survivors treated for antitumor activity against P388 Lymphocytic Leukemia system at a dose of 48 mg/kg

With CC(O)C(C)(O)C(=O)OCC1=CC[N+]2([O-])CC[C@@H](O)[C@@H]12 (stereo partly drawn) the Survivors (P388 [1]) was 6, the Survivors (P388 [2]) was 6 and the T/C (P388 [3]) was 127%. It also gave a Survivors (P388 [4]) of 6, a Survivors (P388 [5]) of 6 and a T-C (P388 [6]) of -0.3. For the same compound, the T-C (P388 [7]) was -0.4, the T-C (P388 [8]) was 0 and the T-C (P388 [9]) was -0.4. It also gave a T/C (P388 [10]) of 115%, a T/C (P388 [11]) of 117% and a T/C (P388 [12]) of 131%.
CC(C)CC(=O)OCC1=CCN2CC[C@@H](O)[C@@H]12 gave a T/C (P388 [13]) of 108%, a Survivors (P388 [14]) of 6 and a T-C (P388 [15]) of -0.4. For the same compound, the T/C (P388 [16]) was 109%, the T-C (P388 [17]) was -0.1 and the Survivors (P388 [18]) was 6. The Survivors (P388 [19]) was 6, the Survivors (P388 [20]) was 6 and the T/C (P388 [21]) was 114%. For the same compound, the T-C (P388 [22]) was -0.3, the T/C (P388 [23]) was 105% and the T-C (P388 [24]) was -0.8. It also gave a Survivors (P388 [25]) of 6, a T/C (P388 [26]) of 108% and a T-C (P388 [27]) of -0.6. The T/C (P388 [28]) was 105%, the Survivors (P388 [29]) was 6 and the T-C (P388 [30]) was -2.7.
Work on O=C(Cc1ccccc1)OCC1=CCN2CC[C@@H](O)[C@@H]12 yielded a T/C (P388 [13]) of 109%, a Survivors (P388 [14]) of 6 and a T-C (P388 [15]) of -0.3. It also gave a T/C (P388 [16]) of 99%, a T-C (P388 [17]) of -0.6 and a Survivors (P388 [31]) of 6. For the same compound, the Survivors (P388 [18]) was 6, the Survivors (P388 [20]) was 6 and the T/C (P388 [21]) was 116%. For the same compound, the T-C (P388 [22]) was -0.5, the T/C (P388 [23]) was 97% and the T-C (P388 [24]) was -0.1. For the same compound, the Survivors (P388 [25]) was 6, the T/C (P388 [26]) was 105% and the T-C (P388 [27]) was -0.8. The T/C (P388 [28]) was 97%, the Survivors (P388 [29]) was 6 and the T-C (P388 [30]) was -2.1.
Work on O=C(Cc1ccccc1)OCC1=CC[N+]2([O-])CC[C@@H](O)C12.O=C(OCC1=CC[N+]2([O-])CC[C@@H](O)C12)c1ccccc1 (stereo partly drawn) yielded a T/C (P388 [32]) of 114%, a Survivors (P388 [33]) of 6 and a Survivors (P388 [34]) of 6. It also gave a T-C (P388 [35]) of -0.1, a T/C (P388 [36]) of 104% and a T/C (P388 [37]) of 108%. For the same compound, the T/C (P388 [38]) was 117%, the Survivors (P388 [39]) was 6 and the T-C (P388 [40]) was 0.3. The Survivors (P388 [41]) was 6, the T-C (P388 [42]) was 0 and the T-C (P388 [43]) was 0.1.
For CC(C)C(O)(C(=O)OCC1=CC[N+]2([O-])CC[C@@H](O)C12)C(C)O (stereo in doubt; form 2), the T-C (P388 [44]) was -4.8, the T-C (P388 [45]) was -0.4 and the T/C (P388 [46]) was 116%. It also gave a Survivors (P388 [47]) of 5, a T-C (P388 [48]) of 0.1 and a T/C (P388 [49]) of 100%. It also gave a T/C (P388 [50]) of 118% and a T-C (P388 [51]) of 1.3.
